# Laboratory results: patent US12377087B2, “Compounds for the treatment of cancer” (UNIVERSITY OF LOUISVILLE RESEARCH FOUNDATION, INC., priority 2015, dated 2025)
# How the values were obtained:
# SK-BR-3 = test: proliferation of SK-BR-3 cells; assay type: cell-based; settings: SK-BR-3, 24-72 hours (72 hours shown)
# Method: Cell Viability: Cells were incubated in 20% trypan blue (Sigma) for 5 minutes. Cells excluding trypan blue were counted using a standard hemocytometer (Hausser Scientific) to determine total numbers of viable cells. Data are expressed as mean±SD of three experiments.
# H460 cells [1] = test: proliferation / viable cell count (trypan blue) of H460 cells; assay type: cell-based, human; settings: for proliferation of H460 NSCLC cells, viable cells by Trypan blue exclusion: increasing concentrations, counts at 48 hours shown
# Method: Cell Viability: Cells were incubated in 20% trypan blue (Sigma) for 5 minutes. Cells excluding trypan blue were counted using a standard hemocytometer (Hausser Scientific) to determine total numbers of viable cells. Data are expressed as mean±SD of three experiments. Proliferation Assays: H460 non-small cell lung cancer cells were plated in 24 well plates and exposed to increasing concentrations of the indicated inhibitors of Formula IV (FBR1-02 corresponds to [drawing 47] DMSO was used as vehicle. After 24, 48 and 72 hours of exposure, cells were detached and viable cells were counted by Trypan blue exclusion (representative counts at 48 hours shown).
# Lewis lung carcinomas = test: Lewis lung carcinoma tumor growth in mice; assay type: in vivo, C57BL/6 mice; settings: C57BL/6 mice, intraperitoneal injection 10 mg/kg daily, eleven days
# H460 cells [2] = test: Glycolysis assay (3H2O from 5-[3H]glucose) in H460 cells; assay type: cell-based, human; settings: H460, indicated concentrations of MPN-2, 48 hours
# Method: Cells growing in 6-well plates were incubated in 500 μl of complete medium containing 1 μCi of 5-[^3H]glucose per well for 60 min in 5% CO2 at 37° C. Media was collected, ^3H2O formed via glycolysis from the 5-[^3H]glucose measured and counts normalized as previously described. For example, the medium was then collected and centrifuged to pellet any suspended cells. To separate the ^3H2O formed via glycolysis from the 5-[^3H]glucose added to the medium, an evaporation technique in a sealed system was utilized. Briefly, 150 μl aliquots of medium were added to open tubes that were placed upright inside scintillation vials containing 1 ml of H2O. The scintillation vials were sealed, and the ^3H2O produced by glycolysis through enolase and released to the medium was allowed to equilibrate with the H2O in the outer vial for 48 h at 37° C. The amounts of ^3H2O that had diffused into the surrounding H2O was measured on a Tri-Carb 2910 liquid scintillation analyzer (Perkin Elmer) and compared with ^3H2O and 5-[^3H]glucose standards. Protein concentration was determined using the BCA assay and counts were normalized to protein concentration. All data are expressed as the mean±SD of three experiments. Statistical significance was assessed by the two-sample t test (independent variable).
# H460 cells [3] = test: ATP measurements in H460 cells; assay type: cell-based, human; settings: H460, indicated concentrations of MPN-2, 48 hours
# Method: Cells were lysed and intracellular ATP determined as described previously. For example, cells were washed (while still adherent) with cold PBS 1×, lysed with Passive Lysis Buffer (1×; Molecular Probes, Invitrogen) added directly to the plates, and immediately harvested by scraping. The lysates were flash frozen (to −80° C.) and thawed (to 37° C.) once to accomplish complete lysis and then centrifuged (at 4° C.) for 30 seconds to clear the lysates. Intracellular ATP levels were determined using a bioluminescence assay (Molecular Probes), utilizing recombinant firefly luciferase and its substrate, D-luciferin. The luminescence was read in a TD-20/20 luminometer (Turner Designs) at 560 nm. The ATP values were calculated using an ATP standard curve. The protein concentrations of the lysates were estimated using the BCA assay (Pierce Biotechnology) and ATP was expressed as pmol/μg protein. All data are expressed as the mean±SD of three experiments. Statistical significance was assessed by the two-sample t test (independent variable).
# [4] = oral and intravenous pharmacokinetics of MPN-2; assay type: in vivo; settings: CD-1 mice (N=3)
# H460 cells [5] = test: F2,6BP measurements in H460 cells; assay type: cell-based, human; settings: H460, indicated concentrations of MPN-2
# Method: F2,6BP measurements: Cells or tissues were prepared as previously described and F2,6BP content measured using a coupled enzyme reaction following the method of Van Schaftingen et at (Van Schaftingen E et al. A kinetic study of pyrophosphate: fructose-6-phosphate phosphotransferase from potato tubers. Application to a microassay of fructose 2,6-bisphosphate. Eur J Biochem 1982 December; 129(1): 191-5) and normalized to total cellular protein measured by the bicinchoninic acid assay (BCA, Thermo Scientific). […] In order to measure F2,6BP, cells were harvested, washed with PBS, lysed in NaOH/Tris acetate by heating at 80° C. and lysates neutralized to pH 7.2. F2,6BP content was measured using a coupled enzyme reaction following the method of Van Schaftingen et al (Eur J Biochem. 1982; 129(1): 191-195). The F2,6BP concentration was normalized to total cellular protein measured by the bicinchoninic acid assay (BCA, Thermo Scientific) All data are expressed as the mean±SD of three experiments. Statistical significance was assessed by the two-sample t test (independent variable).
oral bioavailability [4],Compound,proliferation (SK-BR-3),"proliferation (H460 cells [1]; H460, 24-72 hours (72 hours shown))","proliferation, viable cells (H460 cells [1]; H460 NSCLC, 48 hours and 72 hours)",tumor growth of Lewis lung carcinomas (Lewis lung carcinomas),intracellular glycolysis (H460 cells [2]),ATP production (H460 cells [3]),"F2,6BP production (H460 cells [5])","proliferation of H460 NSCLC cells, viable cells by Trypan blue exclusion (H460 cells [1])"
high oral bioavailability,5-[(8-methoxy-2-methylquinolin-1-ium-4-yl)amino]pentyl nitrate [MPN-2],decreased proliferation,decreased proliferation,decreased the proliferation,suppressed the growth,significantly decreased,significantly decreased,significantly inhibited,–
–,O=[N+]([O-])OCCCCCNc1ccnc2ccccc12 [FBR1-02],–,–,–,–,–,–,–,decreased proliferation of cancer cells
–,COc1cccc2c(NCCCCCNS(C)(=O)=O)ccnc12 [FBR1-09],–,–,–,–,–,–,–,decreased proliferation of cancer cells
